The results in this text go back to PubChem BioAssay (NCI).

Among the test systems are KM12 colon; RPMI-8226 leukemia; NCI-H23 lung; SK-MEL-28 melanoma; SW-620 colon; PC-3 prostate; OVCAR-3 ovarian; HCT-15 colon.
Holding throughout (test): NCI-60 cell line screen, 48 h

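Grown in 96-well plates, cells were treated for 48 hours with each compound at five concentrations. Insufficient inhibition: endpoint recorded as highest concentration tested. GI50 = concentration required for 50% inhibition of growth. TGI marks complete inhibition of growth.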

In the case of `C=CCOc1ccccc1C1(O)c2ccccc2C2=NCCCN21` (stereo unspecified), the TGI in the experiment with KM12 colon was more than 100 µM; in the experiment on RPMI-8226 leukemia it was more than 100 µM; in the experiment with NCI-H23 lung it was more than 100 µM; in the experiment on SK-MEL-28 melanoma it was 52.2 µM; with SW-620 colon it was more than 100 µM; with PC-3 prostate it was 57.2 µM. The figures for the TGI in the experiment on OVCAR-3 ovarian and with HCT-15 colon were 59.7 µM and more than 100 µM, respectively.
For `O=C(Nc1nnc(-c2c(Cl)c(Cl)c(Cl)c(Cl)c2-c2nc3cc(C(=O)c4ccccc4)ccc3[nH]2)o1)c1ccc(Cl)cc1`, the TGI in the experiment with KM12 colon, in the experiment on RPMI-8226 leukemia, in the experiment with NCI-H23 lung, in the experiment on SK-MEL-28 melanoma, in the experiment with SW-620 colon and with PC-3 prostate was more than 100 µM each time. The results for the TGI with OVCAR-3 ovarian and in the experiment on HCT-15 colon were 54.1 µM and more than 100 µM, respectively.
As to `COC(=O)/C=C(\S/C=C(/c1ccccc1)N1CCn2c(C(=O)c3ccccc3)c(C(=O)OC)c(C(=O)OC)c21)C(=O)OC`, the TGI in the experiment on KM12 colon is more than 10 µM; in the experiment on RPMI-8226 leukemia, 7.49 µM; in the experiment with NCI-H23 lung, more than 10 µM; with SW-620 colon, 2.03 µM; in the experiment on PC-3 prostate it was more than 10 µM; with OVCAR-3 ovarian, 2.87 µM. The TGI in the experiment with HCT-15 colon came to 6.7 µM.
As to `COC(=O)[C@@H]1CC(C(CN)c2cn(C(=O)OC(C)(C)C)c3ccccc23)C(=O)N1C(=O)OC(C)(C)C` (stereo partly specified), the TGI is more than 100 µM in the experiment on KM12 colon; 24.1 µM in the experiment with RPMI-8226 leukemia; more than 100 µM in the experiment with NCI-H23 lung; 31.4 µM in the experiment with SK-MEL-28 melanoma; more than 100 µM in the experiment with SW-620 colon; 80.2 µM in the experiment with PC-3 prostate. In addition, the TGI was 59.8 µM in the experiment on OVCAR-3 ovarian and more than 100 µM in the experiment on HCT-15 colon.
For the compound `CCCC1(CCC)c2cc(/C=N\O)ccc2-c2ccc(-c3ccc(C(C)(C)C)cc3)cc21`, the TGI with KM12 colon is more than 100 µM; in the experiment on RPMI-8226 leukemia, more than 100 µM; with NCI-H23 lung, more than 100 µM; with SK-MEL-28 melanoma, 92.6 µM; with SW-620 colon it was more than 100 µM; in the experiment with PC-3 prostate it was more than 100 µM. Besides, the TGI with OVCAR-3 ovarian was 55 µM; in the experiment with HCT-15 colon, more than 100 µM.
With `COc1ccc(-n2c(=O)n(-c3ccccc3)c(=O)n2-c2ccc(OC)cc2)cc1`, the TGI with KM12 colon, with RPMI-8226 leukemia, in the experiment with NCI-H23 lung, in the experiment on SK-MEL-28 melanoma, in the experiment on SW-620 colon and with PC-3 prostate was more than 100 µM throughout. Also, the TGI in the experiment with OVCAR-3 ovarian and in the experiment with HCT-15 colon was more than 100 µM in each case.
Consider `CC/C=C/C[C@H](O)[C@H]1C[C@H]2O[C@H](CC(=O)OC)C[C@H]2O1`, for which the TGI in the experiment with KM12 colon, in the experiment with RPMI-8226 leukemia, in the experiment with NCI-H23 lung, with SK-MEL-28 melanoma, in the experiment on SW-620 colon and with PC-3 prostate was more than 100 µM each time. Also, the TGI in the experiment on OVCAR-3 ovarian and in the experiment on HCT-15 colon was more than 100 µM in each case.
Take `CCn1c(=O)c2nc(SC)sc2n(-c2ccccc2)c1=O`: the TGI with KM12 colon, in the experiment on RPMI-8226 leukemia, in the experiment on NCI-H23 lung, in the experiment on SK-MEL-28 melanoma, in the experiment with SW-620 colon and with PC-3 prostate was more than 100 µM throughout. Also, the TGI in the experiment with OVCAR-3 ovarian and in the experiment on HCT-15 colon was more than 100 µM throughout.
As for `ClCc1cccc(CSc2ncnc3c2ncn3Cc2cccc(CCl)c2)c1`, the GI50 in the experiment with KM12 colon was 1880 nM; in the experiment with RPMI-8226 leukemia it was 1890 nM; in the experiment on NCI-H23 lung, 1750 nM; in the experiment with SK-MEL-28 melanoma, 1590 nM; with SW-620 colon it was 1690 nM; with PC-3 prostate, 1670 nM. In addition, the GI50 with OVCAR-3 ovarian was 1860 nM; in the experiment on HCT-15 colon, 1710 nM. Further, the TGI was determined as 3.46 µM in the experiment on KM12 colon; 4.86 µM in the experiment with RPMI-8226 leukemia; 3.88 µM in the experiment with NCI-H23 lung; 3.08 µM in the experiment with SK-MEL-28 melanoma; 3.47 µM in the experiment on SW-620 colon; 3.34 µM with PC-3 prostate. Also, the values for the TGI with OVCAR-3 ovarian and with HCT-15 colon were 3.31 µM and 3.42 µM, respectively.
Take `Cc1ccc(S(=O)(=O)N/N=C2/CC3CCC4CC2CC34)cc1` (stereo unspecified): the TGI in the experiment with KM12 colon, in the experiment with RPMI-8226 leukemia, in the experiment with NCI-H23 lung, with SK-MEL-28 melanoma, in the experiment with SW-620 colon and in the experiment on PC-3 prostate was more than 100 µM each time. The TGI with OVCAR-3 ovarian and in the experiment with HCT-15 colon was more than 100 µM in each case.
Take `CSCCCNC(=O)c1csc(-c2csc(CCNC(=O)CNC(=O)CNC(=O)OC(C)(C)C)n2)n1`: the TGI with KM12 colon, with NCI-H23 lung, in the experiment on SK-MEL-28 melanoma, in the experiment on SW-620 colon, in the experiment on PC-3 prostate and with OVCAR-3 ovarian was more than 100 µM throughout. In addition, the TGI in the experiment on HCT-15 colon was more than 100 µM.
As for `COc1cc(NC=C2C(=O)OC(C)(C)OC2=O)c(OC)c(C)c1OC`, the TGI in the experiment with KM12 colon, in the experiment on RPMI-8226 leukemia, in the experiment on NCI-H23 lung, in the experiment on SK-MEL-28 melanoma, with SW-620 colon and in the experiment on PC-3 prostate was more than 100 µM each time. Further, the TGI with OVCAR-3 ovarian and in the experiment with HCT-15 colon was more than 100 µM throughout.
Regarding `O=C1CCCCC/C1=C\c1ccccc1`, the TGI in the experiment with KM12 colon, in the experiment on RPMI-8226 leukemia, with NCI-H23 lung, in the experiment on SK-MEL-28 melanoma, with SW-620 colon and with PC-3 prostate was more than 100 µM throughout. Besides, the TGI in the experiment on OVCAR-3 ovarian and in the experiment on HCT-15 colon was more than 100 µM throughout.
As for `CC(C)/C(=N\[N+](C)(C)C)c1ccccc1`, the TGI in the experiment on KM12 colon, in the experiment on RPMI-8226 leukemia, in the experiment with NCI-H23 lung, in the experiment with SK-MEL-28 melanoma, in the experiment with SW-620 colon and in the experiment on PC-3 prostate was more than 100 µM in each case. Further, the TGI with OVCAR-3 ovarian and in the experiment with HCT-15 colon was more than 100 µM in each case.
Turning to `CC(C)(C)OC(=O)CN1CCN(CC(=O)N2CCN(C(=O)OCc3ccccc3)CC2)CCN(CC(=O)OC(C)(C)C)CCN(CC(=O)N2CCN(C(=O)OCc3ccccc3)CC2)CC1`, the TGI in the experiment with KM12 colon turned out to be 3.06 µM; in the experiment with RPMI-8226 leukemia it was 2.91 µM; in the experiment with NCI-H23 lung, 12.5 µM; with SK-MEL-28 melanoma it was 16.2 µM; in the experiment with SW-620 colon, 8.5 µM; in the experiment with PC-3 prostate, 12.5 µM. Moreover, the TGI turned out to be 13.1 µM in the experiment with OVCAR-3 ovarian and 19.1 µM in the experiment with HCT-15 colon.
